ChEMBL document CHEMBL1147687, “Identification and characterization of amino-piperidinequinolones and quinazolinones as MCHr1 antagonists” (Bioorg Med Chem Lett, 2006)
pIC50, pKi: −log10 of the molar value.

Assays:
[1] = biological target: T1, Melanin-concentrating hormone receptor 1 (Homo sapiens, UniProt Q99705); experiment: Displacement of [125I]MCH from MCHr1 expressed in IMR32 cells; format: cell-based, IMR-32
[2] = biological target: T1, Melanin-concentrating hormone receptor 1; experiment: Inhibition of MCH-mediated calcium release in whole IMR32 cells by FLIPR; format: functional, cell-based, IMR-32
[3] = biological target: Voltage-gated inwardly rectifying potassium channel KCNH2 (Homo sapiens, UniProt Q12809); experiment: Binding affinity to hERG stably transfected in HEK293 cells; format: cell-based
[4] = AUC in DIO mouse plasma at 10 mg/kg; format: ADME, organism-based; design: dose 10 mg/kg
[5] = AUC in DIO mouse brain at 10 mg/kg; format: ADME, organism-based; design: dose 10 mg/kg
[6] = Plasma half life in DIO mouse at 10 mg/kg; format: ADME, organism-based; design: dose 10 mg/kg
[7] = Half life in DIO mouse brain at 10 mg/kg; format: ADME, organism-based; design: dose 10 mg/kg
[8] = Cmax in DIO mouse plasma at 10 mg/kg; format: ADME, organism-based; design: dose 10 mg/kg
[9] = Cmax in DIO mouse brain at 10 mg/kg; format: ADME, organism-based; design: dose 10 mg/kg
[10] = Brain to plasma AUC ratio in DIO mouse at 10 mg/kg; format: ADME, organism-based; design: dose 10 mg/kg; conditions: read-out: Ratio AUC

Sequence of Voltage-gated inwardly rectifying potassium channel KCNH2 (Q12809 whole entry): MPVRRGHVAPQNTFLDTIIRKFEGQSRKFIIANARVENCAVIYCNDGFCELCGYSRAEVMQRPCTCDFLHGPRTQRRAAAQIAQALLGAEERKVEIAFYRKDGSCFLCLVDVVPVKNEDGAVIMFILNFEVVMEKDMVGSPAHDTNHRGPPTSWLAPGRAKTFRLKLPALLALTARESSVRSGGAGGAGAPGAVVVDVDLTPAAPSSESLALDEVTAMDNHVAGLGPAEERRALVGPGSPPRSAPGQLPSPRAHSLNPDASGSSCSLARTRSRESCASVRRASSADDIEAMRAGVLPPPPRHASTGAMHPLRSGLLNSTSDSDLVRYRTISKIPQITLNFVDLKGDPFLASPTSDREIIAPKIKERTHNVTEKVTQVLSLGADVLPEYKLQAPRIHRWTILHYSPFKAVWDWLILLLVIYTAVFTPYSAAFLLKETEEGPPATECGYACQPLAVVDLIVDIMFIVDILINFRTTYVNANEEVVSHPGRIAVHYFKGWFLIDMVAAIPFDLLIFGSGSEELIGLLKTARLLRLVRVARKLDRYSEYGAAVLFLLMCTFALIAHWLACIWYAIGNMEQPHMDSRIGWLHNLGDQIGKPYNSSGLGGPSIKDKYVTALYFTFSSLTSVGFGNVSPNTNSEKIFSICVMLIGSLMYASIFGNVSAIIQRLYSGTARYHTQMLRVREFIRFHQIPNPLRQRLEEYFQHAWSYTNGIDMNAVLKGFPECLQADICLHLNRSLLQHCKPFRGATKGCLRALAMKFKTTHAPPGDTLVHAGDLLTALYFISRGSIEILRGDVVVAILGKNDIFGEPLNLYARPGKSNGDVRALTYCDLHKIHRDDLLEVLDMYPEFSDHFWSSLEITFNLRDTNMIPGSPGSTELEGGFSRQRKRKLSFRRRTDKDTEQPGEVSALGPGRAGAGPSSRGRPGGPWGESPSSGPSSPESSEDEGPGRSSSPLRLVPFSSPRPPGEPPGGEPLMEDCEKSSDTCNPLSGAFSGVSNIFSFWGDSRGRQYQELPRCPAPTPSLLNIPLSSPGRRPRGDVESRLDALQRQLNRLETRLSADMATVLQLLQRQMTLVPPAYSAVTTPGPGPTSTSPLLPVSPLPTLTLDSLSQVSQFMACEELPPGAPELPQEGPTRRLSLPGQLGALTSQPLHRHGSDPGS
T1 sequence (Q99705 whole entry): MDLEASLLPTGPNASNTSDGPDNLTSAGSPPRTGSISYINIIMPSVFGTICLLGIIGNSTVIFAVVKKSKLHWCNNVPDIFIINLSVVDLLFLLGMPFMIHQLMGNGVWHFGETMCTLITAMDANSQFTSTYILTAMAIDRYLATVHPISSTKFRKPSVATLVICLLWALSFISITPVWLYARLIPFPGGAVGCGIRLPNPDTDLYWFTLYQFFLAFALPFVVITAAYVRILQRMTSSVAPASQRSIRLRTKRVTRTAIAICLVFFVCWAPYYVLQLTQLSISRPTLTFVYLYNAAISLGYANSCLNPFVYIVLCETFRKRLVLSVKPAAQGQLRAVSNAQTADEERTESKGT

| Compound | pIC50 [1] | pIC50 [2] | pKi [3] | AUC [4] | AUC [5] | half-life [6] | half-life [7] | Cmax [8] | Cmax [9] | Kp [10] |
| --- | --- | --- | --- | --- | --- | --- | --- | --- | --- | --- |
| O=c1cc(NC2CCN(Cc3ccc4c(c3)OCO4)CC2)c2cc(Cl)ccc2n1Cc1ccccc1 | 9.10 | 7.38 | 6.55 | – | – | – | – | – | – | – |
| O=c1nc(NC2CC3CCC(C2)N3Cc2ccc3c(c2)OCO3)c2cc(Cl)ccc2n1CC(F)(F)F (stereo not drawn) | 8.40 | 7.51 | 6.92 | – | – | – | – | – | – | – |
| Cn1c(=O)nc(NC2CCN(Cc3ccc4c(c3)OCO4)CC2)c2cc(Cl)ccc21 | 8.30 | 7.21 | 6.82 | 5100 ng·h/mL | 650 ng·h/mL | 96 min | 114 min | 2200 ng/mL | 230 ng/mL | 0.13 |
| COC(=O)c1c(NC2CCN(Cc3ccc4c(c3)OCO4)CC2)c2cc(Cl)ccc2n(C)c1=O | 7.01 | 6.34 | 5.84 | – | – | – | – | – | – | – |
| Cn1c(=O)cc(NC2CCN(Cc3ccc4ccccc4c3)CC2)c2cc(Cl)ccc21 | 8.30 | 7.00 | 6.67 | – | – | – | – | – | – | – |
| O=c1cc(NC2CCN(Cc3ccc4c(c3)OCO4)CC2)c2cc(Cl)ccc2n1Cc1ccccn1 | 8.92 | 7.70 | 6.26 | – | – | – | – | – | – | – |
| Cn1c(=O)c(C#N)c(NC2CCN(Cc3ccc4c(c3)OCO4)CC2)c2cc(Cl)ccc21 | 7.62 | 7.16 | – | 5900 ng·h/mL | 620 ng·h/mL | 114 min | 120 min | 1600 ng/mL | 160 ng/mL | 0.11 |
| O=c1nc(NC2CCN(Cc3ccc4c(c3)OCO4)CC2)c2cc(Cl)ccc2n1CC(F)(F)F | 8.70 | 7.54 | 6.35 | – | – | – | – | – | – | – |
| COc1ccc2c(c1)c(NC1CCN(Cc3ccc4c(c3)OCO4)CC1)cc(=O)n2C | 8.52 | 7.70 | 6.11 | – | – | – | – | – | – | – |
| CCCCCn1c(=O)nc(NC2CCN(Cc3ccc4c(c3)OCO4)CC2)c2cc(Cl)ccc21 | 7.92 | 7.30 | 6.87 | – | – | – | – | – | – | – |
| O=c1cc(NC2CCN(Cc3ccc4ccccc4c3)CC2)c2cc(Cl)ccc2n1Cc1ccccn1 | 9.05 | 7.26 | 7.06 | – | – | – | – | – | – | – |
| Cn1c(=O)c(C#N)c(NC2CCN(Cc3ccc4ccccc4c3)CC2)c2cc(Cl)ccc21 | 7.92 | 6.71 | < 5.70 | – | – | – | – | – | – | – |
| Cn1c(=O)cc(NC2CCN(Cc3ccc4c(c3)OCO4)CC2)c2cc(OC(F)F)ccc21 | 8.30 | 7.47 | < 5.70 | – | – | – | – | – | – | – |
| Cn1c(=O)c(C(=O)N2CCCC2)c(NC2CCN(Cc3ccc4c(c3)OCO4)CC2)c2cc(Cl)ccc21 | 7.80 | 7.28 | < 5.70 | – | – | – | – | – | – | – |
| Cn1c(=O)nc(NC2CCN(Cc3ccc4ncccc4c3)CC2)c2cc(Cl)ccc21 | 7.92 | 7.18 | – | – | – | – | – | – | – | – |
| Cn1c(=O)cc(NC2CCN(C/C=C/c3ccccc3)CC2)c2cc(Cl)ccc21 | 8.00 | 7.06 | 7.52 | – | – | – | – | – | – | – |
| Cn1c(=O)nc(NC2CC3CCC(C2)N3Cc2ccc3c(c2)OCO3)c2cc(Cl)ccc21 (stereo in doubt; 4i) | 7.17 | 6.87 | – | – | – | – | – | – | – | – |
| Cn1c(=O)nc(NC2CCN(Cc3ccc4ccccc4c3)CC2)c2cc(Cl)ccc21 | 8.15 | 7.14 | 6.80 | – | – | – | – | – | – | – |
| O=c1cc(NC2CCN(Cc3ccc4c(c3)OCO4)CC2)c2cc(Cl)ccc2n1Cc1ccncc1 | 8.96 | 7.54 | 6.45 | 2100 ng·h/mL | 730 ng·h/mL | 138 min | 150 min | 680 ng/mL | 200 ng/mL | 0.29 |
| Cn1c(=O)nc(NC2CC3CCC(C2)N3Cc2ccc3c(c2)OCO3)c2cc(Cl)ccc21 (stereo in doubt; 4g) | 8.05 | 7.28 | – | – | – | – | – | – | – | – |
| Cn1c(=O)cc(NC2CCN(Cc3ccc4c(c3)OCO4)CC2)c2cc(OC(F)(F)F)ccc21 | 7.47 | 6.98 | 5.74 | – | – | – | – | – | – | – |
| O=c1cc(NC2CCN(Cc3ccc4c(c3)OCO4)CC2)c2cc(Cl)ccc2[nH]1 | 8.40 | 7.59 | – | – | – | – | – | – | – | – |
| N#Cc1c(NC2CCN(Cc3ccc4c(c3)OCO4)CC2)c2cc(Cl)ccc2[nH]c1=O | 7.82 | 7.70 | 6.38 | – | – | – | – | – | – | – |
| O=c1nc(NC2CCN(Cc3ccc4ccccc4c3)CC2)c2cc(Cl)ccc2n1CC(F)(F)F | 8.30 | 7.21 | 6.82 | – | – | – | – | – | – | – |
